Assay [1] addresses Heat shock protein HSP 90-alpha (Homo sapiens, UniProt P07900). Description: Luminescence-based dose response biochemical high throughput screening assay for inhibitors of the Heat Shock Protein 90 (HSP90). [Related pubchem assays: 1831 (Summary AID.), 1846 (Confirmation screen.), 1789 (Primary screen.)].
The next assay deals with Ephrin type-A receptor 4 (Mus musculus, UniProt Q03137). Description: inhibitors of EphA4 binding to KYL peptide, primary screen, biochemical, colorimetric, mouse EphA4 (AID 689). Format: functional.
In assay [2] the target is Ubiquitin carboxyl-terminal hydrolase BAP1 (Homo sapiens, UniProt Q92560). Description: BAP1 deubiquitinase inhibitors, dose response, biochemical (AID 714). It counts as functional.
Assay [3] can be described thus: HEp-2 cell cytotoxicity, dose response, cytotoxicity control for RSV inhibitor project, HTS (AID 2410). Format: functional. The conditions noted are these: human respiratory syncytial virus.
For assay [4], the target named is Voltage-gated inwardly rectifying potassium channel KCNH2 (Homo sapiens, UniProt Q12809). Description: hERG protection from proarrhythmic block, potency, dose response, cell-based, thallium flux (AID 2121). It counts as ADME. Background: The hERG channel carries a current that helps repolarise heart muscle cells.
Assay [5] addresses T1, Oxysterols receptor LXR-beta (Homo sapiens, UniProt P55055).
T1 sequence (P55055 whole entry): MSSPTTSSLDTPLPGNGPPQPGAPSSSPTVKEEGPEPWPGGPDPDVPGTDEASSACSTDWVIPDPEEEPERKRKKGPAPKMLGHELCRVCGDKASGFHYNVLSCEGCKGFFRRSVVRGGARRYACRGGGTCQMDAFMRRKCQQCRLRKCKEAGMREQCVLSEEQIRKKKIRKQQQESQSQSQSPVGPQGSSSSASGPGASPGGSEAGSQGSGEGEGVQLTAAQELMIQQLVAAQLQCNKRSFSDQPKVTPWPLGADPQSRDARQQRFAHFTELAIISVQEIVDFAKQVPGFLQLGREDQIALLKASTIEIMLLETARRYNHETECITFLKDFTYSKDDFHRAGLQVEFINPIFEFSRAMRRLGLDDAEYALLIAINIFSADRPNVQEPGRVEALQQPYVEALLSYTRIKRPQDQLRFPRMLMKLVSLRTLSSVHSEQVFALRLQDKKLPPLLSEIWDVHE
As to the kind of experiment: LXR agonists, Gal4 luciferase reporter, dose response, counter-screen for ssDAF-12 agonist project, cell-based, luminescence, HEK293, S. stercoralis campaign (AID 720737). It counts as functional. The conditions noted are these: read-out: IC50 (the source's name).

A short description of assay [6]: Luminescence-based cell-based high throughput dose response assay to identify activators of the DAF-12 from the parasite S. stercoralis (ssDAF-12). It counts as functional.
Assay [7] addresses G-protein coupled receptor 55 (Homo sapiens, UniProt Q9Y2T6). Description: GPR55 agonists via beta-arrestin recruitment, primary screen, imaging, U2OS cells, beta-arrestin-GFP redistribution (AID 1961). It counts as functional.
Another assay deals with T2, Protein skinhead-1 (Caenorhabditis elegans, UniProt P34707).
T2 sequence (P34707 whole entry): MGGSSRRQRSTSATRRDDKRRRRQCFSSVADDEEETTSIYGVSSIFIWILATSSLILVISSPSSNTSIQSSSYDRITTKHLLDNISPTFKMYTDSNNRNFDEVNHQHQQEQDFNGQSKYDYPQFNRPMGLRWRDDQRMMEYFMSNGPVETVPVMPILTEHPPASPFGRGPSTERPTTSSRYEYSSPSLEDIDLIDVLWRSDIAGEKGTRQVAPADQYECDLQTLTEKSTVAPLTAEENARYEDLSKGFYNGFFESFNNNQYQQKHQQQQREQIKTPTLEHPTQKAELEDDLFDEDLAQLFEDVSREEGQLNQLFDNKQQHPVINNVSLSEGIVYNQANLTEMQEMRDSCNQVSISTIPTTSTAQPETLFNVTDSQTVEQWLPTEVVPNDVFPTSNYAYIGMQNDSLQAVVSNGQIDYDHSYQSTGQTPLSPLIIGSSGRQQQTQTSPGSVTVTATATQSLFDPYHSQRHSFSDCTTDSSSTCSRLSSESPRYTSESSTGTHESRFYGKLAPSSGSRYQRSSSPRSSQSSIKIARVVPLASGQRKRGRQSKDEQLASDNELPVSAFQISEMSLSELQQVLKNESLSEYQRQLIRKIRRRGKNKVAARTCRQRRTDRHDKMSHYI
It counts as functional.

The target in assay [8] is T1, Oxysterols receptor LXR-beta. Format: functional, cell-based.
Assay [9] in a line: Vero cell cytotoxicity, dose response, cytotoxicity control for Vif-APOBEC3G degradation inhibitor project, Vero cells (AID 1117358). It counts as functional. The conditions noted are these: Human immunodeficiency virus 1, Vero.
The target in assay [10] is T3, Corticotropin-releasing factor receptor 2/Corticotropin-releasing factor-binding protein (Homo sapiens, UniProt P24387+Q13324).
T3 sequence (Q13324 whole entry): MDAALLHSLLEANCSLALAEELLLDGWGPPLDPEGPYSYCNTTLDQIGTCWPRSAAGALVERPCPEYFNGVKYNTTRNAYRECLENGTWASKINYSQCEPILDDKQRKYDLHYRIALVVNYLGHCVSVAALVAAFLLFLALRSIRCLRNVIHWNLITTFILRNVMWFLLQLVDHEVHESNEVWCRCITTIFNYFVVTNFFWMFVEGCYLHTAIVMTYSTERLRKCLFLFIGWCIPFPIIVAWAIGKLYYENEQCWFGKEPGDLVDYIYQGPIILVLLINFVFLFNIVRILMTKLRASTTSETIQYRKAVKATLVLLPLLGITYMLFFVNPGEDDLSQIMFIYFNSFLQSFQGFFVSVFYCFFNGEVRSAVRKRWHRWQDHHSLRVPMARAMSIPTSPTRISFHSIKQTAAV
T3 sequence (P24387 whole entry): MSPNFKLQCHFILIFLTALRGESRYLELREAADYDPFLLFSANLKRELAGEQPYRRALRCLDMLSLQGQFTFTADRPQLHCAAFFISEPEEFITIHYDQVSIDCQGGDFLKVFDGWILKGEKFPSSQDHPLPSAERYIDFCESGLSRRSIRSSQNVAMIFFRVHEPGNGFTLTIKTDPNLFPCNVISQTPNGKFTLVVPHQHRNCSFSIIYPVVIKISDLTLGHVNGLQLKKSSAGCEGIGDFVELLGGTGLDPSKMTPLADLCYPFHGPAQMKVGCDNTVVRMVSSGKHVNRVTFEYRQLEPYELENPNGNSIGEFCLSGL
As to the kind of experiment: activators of CRF receptor 2 with binding protein – uHTS hits, confirmation (AID 602473). Format: functional. The conditions noted are these: read-out: EC50_Mean.

In assay [11] the target is T3, Corticotropin-releasing factor receptor 2/Corticotropin-releasing factor-binding protein. As to the kind of experiment: Dose Response confirmation of uHTS hits for small molecule antagonists of the CRF-binding protein and CRF-R2 receptor complex. Format: functional. Particulars: read-out: IC50_Mean.
In assay [12] the target is T4, Fatty acid synthase (Homo sapiens, UniProt P49327). Description: FAS thioesterase domain inhibitors, dose response, biochemical, endpoint fluorescence intensity, uHTS hits (AID 624327).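 Also: fluorescence from hydrolysis of an O-methyl fluorescein acyl ester substrate by the enzyme.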 It counts as functional.
Assay [13] is described as follows: Jurkat T cell cytotoxicity, dose response, cytotoxicity control for P. falciparum gametocyte viability project, luminescence (AID 1117277).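 Also: potency reflects loss of cellular ATP meaning fewer viable cells.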 Format: functional, cell-based.
The target in assay [14] is T4, Fatty acid synthase. As to the kind of experiment: FAS thioesterase domain inhibitors, dose response, biochemical, kinetic fluorescence intensity (AID 624326).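 Also: rate of fluorescence rise from hydrolysis of a fluorogenic O-methyl fluorescein ester substrate.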 Format: functional.
The nature of assay [15]: P. falciparum late gametocyte killing, dose response, luminescence (AID 1117278).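 Also: gametocytes exposed to compound for 24 hours.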 Format: functional, cell-based.
Assay [16] concerns the target T5, Heat shock factor protein 1 (Mus musculus, UniProt P38532).
T5 sequence (P38532 whole entry): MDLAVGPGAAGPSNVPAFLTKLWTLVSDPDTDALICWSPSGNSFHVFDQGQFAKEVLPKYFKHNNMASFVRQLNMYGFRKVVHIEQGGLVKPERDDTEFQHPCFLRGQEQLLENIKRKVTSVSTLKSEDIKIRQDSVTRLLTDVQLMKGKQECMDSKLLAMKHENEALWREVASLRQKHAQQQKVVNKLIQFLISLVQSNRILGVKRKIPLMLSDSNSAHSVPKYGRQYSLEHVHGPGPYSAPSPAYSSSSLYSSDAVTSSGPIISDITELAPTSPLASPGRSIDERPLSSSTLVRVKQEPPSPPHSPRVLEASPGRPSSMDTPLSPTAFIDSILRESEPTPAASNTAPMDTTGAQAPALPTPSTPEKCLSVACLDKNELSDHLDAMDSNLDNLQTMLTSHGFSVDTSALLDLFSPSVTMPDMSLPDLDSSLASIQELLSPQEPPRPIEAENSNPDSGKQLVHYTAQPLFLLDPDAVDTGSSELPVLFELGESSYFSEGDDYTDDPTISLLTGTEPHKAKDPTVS
As to the kind of experiment: HSF1 potentiators in luciferase reporter cells, confirmation, cell-based, NIH3T3, luminescence, dose retest (AID 435004).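 Also: stress induced by proteasome inhibitor MG132 added 30 min after compound; luciferase reporter driven by HSF1 response element in NIH3T3 cells; actives raise luminescence as potentiators of the MG132 stress response.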 Format: functional.

Assay [17] deals with Muscarinic acetylcholine receptor M1 (Rattus norvegicus, UniProt P08482). Description: rat M1 positive allosteric modulator potency, dose response, cell-based, calcium mobilization, CHO-K1, ACh EC20 (AID 2425). Format: functional. (Calcium flux is commonly read through the fluorescence of an indicator in the cells.)
The nature of assay [18]: inhibitors of Vif binding to APOBEC3G peptide, primary screen, biochemical, TR-FRET, GST-Vif 1-94, biotin-A3G peptide, dose response retest (AID 1117319).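 Also: TR-FRET signal of purified GST-Vif binding a biotinylated A3G peptide; inhibitors lower the FRET signal by blocking Vif and A3G binding.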 It counts as functional. (TR-FRET usually uses a lanthanide donor and a delayed reading to cut background.)
The target in assay [19] is E3 ubiquitin-protein ligase Mdm2 (Homo sapiens, UniProt Q00987). Description: enhancers of MDM2-luciferase reporter signal, concentration-effect titration, project on inhibitors of MDM2 ubiquitin ligase, cellular assay, luminescent readout, 384-well plate format (AID 1394).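 Also: MDM2 E3 inhibitors raise luminescence so EC50 is for signal enhancement.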 It counts as functional.
The nature of assay [20]: HepG2 cell cytotoxicity, dose response, cytotoxicity control, cherry-picked samples (AID 1159577). It counts as functional, cell-based.
The nature of assay [21]: P. falciparum Dd2 growth inhibitors, dose response, SYBR Green, cherry-picked samples (AID 1159567). Format: functional, cell-based.
For assay [22], the target named is T6, Low molecular weight phosphotyrosine protein phosphatase (Homo sapiens, UniProt P24666).
T6 sequence (P24666 whole entry): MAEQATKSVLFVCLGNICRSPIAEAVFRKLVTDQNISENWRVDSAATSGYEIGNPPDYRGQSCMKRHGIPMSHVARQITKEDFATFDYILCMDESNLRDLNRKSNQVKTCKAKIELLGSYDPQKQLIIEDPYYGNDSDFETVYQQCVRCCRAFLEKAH
As to the kind of experiment: LMPTP phosphatase inhibitors, colorimetric pNPP readout, dose response, orthogonal assay, biochemical, absorbance, pNPP substrate, LMPTP-A isoform, set 2 (AID 743308). Format: functional.

The target in assay [23] is T6, Low molecular weight phosphotyrosine protein phosphatase. As to the kind of experiment: LMPTP phosphatase inhibitors, dose response, biochemical, OMFP substrate, fluorescence intensity, set 2 (AID 743307). It counts as functional.
Another assay can be described thus: cells. The conditions noted are these: INS-1E. It counts as functional, cell-based.
A short description of assay [24]: Dose-response inhibition of insulin secretion in a rat insulinoma line at 5 mM glucose (AID 1117331). Format: functional, cell-based. Particulars: INS-1E.

SMILES strings stand for the structures. Where a name gives a salt, the structure may show the parent alone. Activity calls are given as the source filed them.

The term CC50 denotes the concentration at which the toxic effect on the cells reaches its halfway point. By AC50 is commonly meant the concentration giving half of the maximal activity seen.

T4 sequence (P49327 whole entry, the tested form may be a part): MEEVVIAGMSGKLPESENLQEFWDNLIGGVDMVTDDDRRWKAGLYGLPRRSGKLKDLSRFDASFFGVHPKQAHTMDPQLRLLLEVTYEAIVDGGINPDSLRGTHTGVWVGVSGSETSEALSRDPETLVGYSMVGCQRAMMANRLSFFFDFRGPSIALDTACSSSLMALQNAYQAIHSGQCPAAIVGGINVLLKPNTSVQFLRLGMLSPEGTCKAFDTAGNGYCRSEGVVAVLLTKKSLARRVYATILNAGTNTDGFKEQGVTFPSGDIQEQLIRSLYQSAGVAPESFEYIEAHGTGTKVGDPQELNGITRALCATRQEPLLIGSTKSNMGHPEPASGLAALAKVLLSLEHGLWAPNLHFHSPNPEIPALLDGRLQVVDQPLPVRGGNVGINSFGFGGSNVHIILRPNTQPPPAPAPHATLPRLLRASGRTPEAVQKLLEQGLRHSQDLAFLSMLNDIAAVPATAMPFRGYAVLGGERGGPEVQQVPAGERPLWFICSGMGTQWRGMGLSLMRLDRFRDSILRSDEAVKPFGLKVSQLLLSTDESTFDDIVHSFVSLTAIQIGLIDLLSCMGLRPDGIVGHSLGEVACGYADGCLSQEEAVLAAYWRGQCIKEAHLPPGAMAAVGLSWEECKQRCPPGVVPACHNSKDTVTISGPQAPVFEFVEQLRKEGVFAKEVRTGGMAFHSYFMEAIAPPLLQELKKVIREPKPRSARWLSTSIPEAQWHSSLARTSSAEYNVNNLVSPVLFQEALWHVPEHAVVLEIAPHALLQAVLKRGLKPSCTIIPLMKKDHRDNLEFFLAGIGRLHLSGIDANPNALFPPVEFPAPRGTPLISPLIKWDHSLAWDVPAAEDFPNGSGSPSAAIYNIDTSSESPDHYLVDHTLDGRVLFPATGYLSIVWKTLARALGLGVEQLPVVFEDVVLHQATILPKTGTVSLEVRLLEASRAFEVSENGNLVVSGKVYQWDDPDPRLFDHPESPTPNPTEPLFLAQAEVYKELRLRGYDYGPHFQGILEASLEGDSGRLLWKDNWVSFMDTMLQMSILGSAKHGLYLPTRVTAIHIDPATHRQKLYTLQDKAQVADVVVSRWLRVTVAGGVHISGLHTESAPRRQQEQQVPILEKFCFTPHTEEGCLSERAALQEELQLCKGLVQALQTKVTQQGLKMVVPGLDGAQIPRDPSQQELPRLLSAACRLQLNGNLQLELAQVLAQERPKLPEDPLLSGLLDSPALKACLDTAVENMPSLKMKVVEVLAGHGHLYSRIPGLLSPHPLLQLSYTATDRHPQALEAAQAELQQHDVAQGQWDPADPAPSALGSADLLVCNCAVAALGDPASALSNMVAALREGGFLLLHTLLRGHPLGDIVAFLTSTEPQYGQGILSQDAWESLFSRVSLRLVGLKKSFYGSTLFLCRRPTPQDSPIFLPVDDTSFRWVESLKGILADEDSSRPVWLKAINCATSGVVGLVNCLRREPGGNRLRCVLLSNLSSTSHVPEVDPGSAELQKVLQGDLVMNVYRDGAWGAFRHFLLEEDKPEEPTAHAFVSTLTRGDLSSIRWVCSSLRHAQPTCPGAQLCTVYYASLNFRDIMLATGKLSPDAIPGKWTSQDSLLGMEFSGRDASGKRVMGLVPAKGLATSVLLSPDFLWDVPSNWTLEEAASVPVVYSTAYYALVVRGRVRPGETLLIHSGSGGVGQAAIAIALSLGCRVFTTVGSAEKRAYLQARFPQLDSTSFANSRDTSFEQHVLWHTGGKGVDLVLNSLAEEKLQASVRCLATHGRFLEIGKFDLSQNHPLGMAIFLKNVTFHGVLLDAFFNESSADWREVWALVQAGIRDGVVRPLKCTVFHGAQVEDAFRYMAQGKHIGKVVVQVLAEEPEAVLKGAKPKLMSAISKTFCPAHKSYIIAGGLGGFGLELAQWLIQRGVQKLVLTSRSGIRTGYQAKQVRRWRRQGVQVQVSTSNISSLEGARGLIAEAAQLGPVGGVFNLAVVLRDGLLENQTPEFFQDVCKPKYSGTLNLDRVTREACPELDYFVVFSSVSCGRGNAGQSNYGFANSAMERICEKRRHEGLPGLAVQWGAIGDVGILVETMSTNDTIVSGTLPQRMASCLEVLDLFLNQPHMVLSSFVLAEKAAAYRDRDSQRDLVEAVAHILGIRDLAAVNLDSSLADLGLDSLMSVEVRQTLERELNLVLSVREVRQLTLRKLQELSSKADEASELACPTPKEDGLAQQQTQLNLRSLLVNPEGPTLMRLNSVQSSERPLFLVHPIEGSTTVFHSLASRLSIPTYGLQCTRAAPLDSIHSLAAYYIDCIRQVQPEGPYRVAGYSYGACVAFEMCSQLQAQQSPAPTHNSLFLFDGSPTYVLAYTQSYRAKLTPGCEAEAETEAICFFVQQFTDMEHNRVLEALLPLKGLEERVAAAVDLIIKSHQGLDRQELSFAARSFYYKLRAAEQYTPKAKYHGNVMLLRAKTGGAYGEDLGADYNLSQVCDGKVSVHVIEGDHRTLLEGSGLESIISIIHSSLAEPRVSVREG
Sequence of Voltage-gated inwardly rectifying potassium channel KCNH2 (Q12809 whole entry): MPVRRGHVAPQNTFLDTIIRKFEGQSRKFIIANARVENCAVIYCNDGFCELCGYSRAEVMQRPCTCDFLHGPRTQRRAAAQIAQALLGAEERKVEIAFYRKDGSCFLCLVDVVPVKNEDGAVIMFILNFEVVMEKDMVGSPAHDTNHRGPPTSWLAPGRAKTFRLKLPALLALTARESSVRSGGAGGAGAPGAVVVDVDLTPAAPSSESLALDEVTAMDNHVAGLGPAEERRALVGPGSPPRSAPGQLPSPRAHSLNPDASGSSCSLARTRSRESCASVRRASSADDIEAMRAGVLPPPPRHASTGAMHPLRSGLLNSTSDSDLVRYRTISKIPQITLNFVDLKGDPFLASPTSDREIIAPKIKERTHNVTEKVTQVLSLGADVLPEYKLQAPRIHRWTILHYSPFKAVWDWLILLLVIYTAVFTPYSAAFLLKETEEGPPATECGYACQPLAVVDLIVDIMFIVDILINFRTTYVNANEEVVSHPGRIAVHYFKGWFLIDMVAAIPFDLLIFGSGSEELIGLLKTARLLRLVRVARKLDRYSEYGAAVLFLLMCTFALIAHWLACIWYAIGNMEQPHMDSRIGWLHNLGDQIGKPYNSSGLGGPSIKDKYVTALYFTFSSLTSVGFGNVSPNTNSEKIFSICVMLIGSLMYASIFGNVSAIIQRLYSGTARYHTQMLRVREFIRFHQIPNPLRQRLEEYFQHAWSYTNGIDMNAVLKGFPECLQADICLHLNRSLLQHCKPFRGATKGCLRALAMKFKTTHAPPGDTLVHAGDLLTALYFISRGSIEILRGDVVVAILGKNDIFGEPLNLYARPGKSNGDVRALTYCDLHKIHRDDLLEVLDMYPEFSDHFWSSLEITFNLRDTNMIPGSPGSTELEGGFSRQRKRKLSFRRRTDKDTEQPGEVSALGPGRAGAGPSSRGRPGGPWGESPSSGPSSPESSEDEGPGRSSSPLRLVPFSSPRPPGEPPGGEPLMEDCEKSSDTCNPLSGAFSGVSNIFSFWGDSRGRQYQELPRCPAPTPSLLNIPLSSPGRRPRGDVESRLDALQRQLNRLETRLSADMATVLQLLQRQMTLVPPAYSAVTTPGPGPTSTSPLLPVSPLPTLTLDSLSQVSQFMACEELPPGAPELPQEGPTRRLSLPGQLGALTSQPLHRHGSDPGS
Sequence of Ephrin type-A receptor 4 (Q03137 whole entry): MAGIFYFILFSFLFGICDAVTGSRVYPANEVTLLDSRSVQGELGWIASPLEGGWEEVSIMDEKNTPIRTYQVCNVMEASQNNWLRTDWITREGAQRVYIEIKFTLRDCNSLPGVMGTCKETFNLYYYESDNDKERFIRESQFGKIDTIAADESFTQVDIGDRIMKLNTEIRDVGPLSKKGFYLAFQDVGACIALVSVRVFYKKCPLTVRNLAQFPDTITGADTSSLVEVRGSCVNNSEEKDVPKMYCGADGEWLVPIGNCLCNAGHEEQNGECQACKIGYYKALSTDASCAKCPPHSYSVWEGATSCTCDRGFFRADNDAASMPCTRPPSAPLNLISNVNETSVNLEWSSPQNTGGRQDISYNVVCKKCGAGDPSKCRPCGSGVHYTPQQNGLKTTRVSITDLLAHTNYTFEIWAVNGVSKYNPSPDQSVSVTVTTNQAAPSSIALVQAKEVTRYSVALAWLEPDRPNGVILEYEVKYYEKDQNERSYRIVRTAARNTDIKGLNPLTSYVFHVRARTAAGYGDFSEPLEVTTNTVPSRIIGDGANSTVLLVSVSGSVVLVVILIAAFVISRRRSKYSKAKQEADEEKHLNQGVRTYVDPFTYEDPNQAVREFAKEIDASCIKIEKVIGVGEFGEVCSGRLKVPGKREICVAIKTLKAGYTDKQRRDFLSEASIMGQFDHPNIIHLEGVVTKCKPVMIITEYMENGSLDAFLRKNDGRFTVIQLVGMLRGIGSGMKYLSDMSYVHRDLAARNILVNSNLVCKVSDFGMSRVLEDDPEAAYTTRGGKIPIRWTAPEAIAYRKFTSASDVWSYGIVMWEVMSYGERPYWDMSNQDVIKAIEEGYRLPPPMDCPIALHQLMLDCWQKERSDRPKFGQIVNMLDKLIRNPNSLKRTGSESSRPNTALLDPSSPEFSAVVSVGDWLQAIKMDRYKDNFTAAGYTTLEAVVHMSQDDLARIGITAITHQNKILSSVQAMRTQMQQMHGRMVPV
Sequence of E3 ubiquitin-protein ligase Mdm2 (Q00987 whole entry): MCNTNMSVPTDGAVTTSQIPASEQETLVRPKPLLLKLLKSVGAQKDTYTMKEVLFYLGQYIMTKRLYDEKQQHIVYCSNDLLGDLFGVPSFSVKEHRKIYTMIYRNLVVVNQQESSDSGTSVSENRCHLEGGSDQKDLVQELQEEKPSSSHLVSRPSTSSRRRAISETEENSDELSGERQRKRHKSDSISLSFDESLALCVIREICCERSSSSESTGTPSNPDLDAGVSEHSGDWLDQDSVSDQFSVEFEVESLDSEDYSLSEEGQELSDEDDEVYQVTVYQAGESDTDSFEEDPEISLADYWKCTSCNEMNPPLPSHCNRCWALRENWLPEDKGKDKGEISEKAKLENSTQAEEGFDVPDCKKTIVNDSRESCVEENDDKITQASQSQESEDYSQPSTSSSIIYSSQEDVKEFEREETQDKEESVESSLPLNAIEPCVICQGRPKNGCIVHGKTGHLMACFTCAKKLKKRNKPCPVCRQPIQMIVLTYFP

For the compound `CN(C)c1ccc(C2Nc3cccc4cccc(c34)N2)cc1`, the IC50 in assay [1] is 6.25 µM (active).

On to `CCOC(=O)N1CCN(C(=O)CSc2nnc(-c3c[nH]c4ccccc34)n2CCOC)CC1`, for which, at Ephrin type-A receptor 4, the IC50 is listed as > 100 µM (not active).

Take `Cc1sc(NC(=O)CSc2nnc(COc3ccc(Cl)cc3)n2C)c(C#N)c1C`: in assay [2], the IC50 is given as > 50 µM (not active).

As to `Sc1ncnc2c1sc1nc(-c3ccccc3)c3c(c12)CCCC3`, the half-maximal cytotoxic concentration (CC50) in assay [3] is 16.9 µM (active). Moreover, the EC50 in assay [4] was 1.69 µM (active).

For `N=C(NOC(=O)c1cc(Br)ccc1Cl)c1ccccn1`, the EC50 in assay [5] is > 67.5 µM (inactive); in assay [7], 31.4 µM (inactive); in assay [8] it was > 67.5 µM (inactive). Moreover, the IC50 in [6] was > 67.5 µM (inactive); at Protein skinhead-1 it was 41.8 µM (active).

For the compound `O=C1CSC(c2nn(-c3ccccc3)cc2-c2cc3ccccc3oc2=O)N1Cc1ccco1` (configuration not stated), the half-maximal cytotoxic concentration (CC50) in assay [9] was > 40 µM (active). Also, in [10], the EC50 was > 53 µM (inactive). In addition, the IC50 in [11] was 19.2 µM (active).

Take `Cc1cc2c(cc1C)C(c1cccc([N+](=O)[O-])c1)CC(=O)N2` (configuration not stated): the IC50 at Fatty acid synthase [12] is 5.61 µM (active); in assay [13], > 83.2 µM (inactive); at Fatty acid synthase [14], 7.33 µM (active); in assay [15], > 109 µM (inactive). Further, in assay [16], the EC50 was > 260 µM (inactive).

With `Cc1cc(NC(=O)CS(=O)(=O)c2cn(Cc3cccc(-c4ccn(C)n4)c3)c3ccccc23)no1`, in assay [17], the EC50 was 3.45 µM (active).

For the compound `CCc1ccccc1NC(=O)CC(O)(C(=O)OC)C(F)(F)F` (configuration not stated), in [18], the IC50 was > 100 µM (active).

Regarding `Cn1cc/c(=N\C=C(C#N)C#N)c2ccccc21`, the EC50 in assay [19] was 3.98 µM (not active).

`OC[C@H]1Nc2ccc(-c3cccc(F)c3)cc2[C@@H]2[C@H]1CCN2Cc1ccc(F)cc1`: the AC50 is > 39 µM (inactive) in assay [20] and 4.27 µM (active) in [21].

For the compound `Brc1ccc2nc(-c3ccccc3)cc(NCCCN3CCCCC3)c2c1`, the IC50 in [22] and in assay [23] was > 80 µM (inactive) throughout.

As to `CN(C)CCC[C@@]1(c2ccc(F)cc2)OCc2cc(C#N)ccc21` [ESCITALOPRAM OXALATE], the IC50 in the assay “cells” is > 33.3 µM (inactive); in assay [24], 5.45 µM (inactive).

The record behind these values is ChEMBL document CHEMBL1201862, “PubChem BioAssay data set” (2004).
